Data on eleven compounds can be found in ChEMBL document CHEMBL5465560, “Selectivity Literature for EUbOPEN Chemogenomic Library” (2024).

Assay [1] has as its target DNA-dependent protein kinase catalytic subunit (Homo sapiens) (UniProt P78527). The assay is described as follows: Selectivity interaction (ProQinase) EUB0000171b PRKDC.
The target in assay [2] is Tyrosine-protein kinase JAK1 (Homo sapiens, UniProt P23458). The following applies: at 10 µM.
Assay [3] has as its target T1, Inhibitor of nuclear factor kappa-B kinase subunit beta (Homo sapiens) (UniProt O14920).
T1 sequence (whole entry): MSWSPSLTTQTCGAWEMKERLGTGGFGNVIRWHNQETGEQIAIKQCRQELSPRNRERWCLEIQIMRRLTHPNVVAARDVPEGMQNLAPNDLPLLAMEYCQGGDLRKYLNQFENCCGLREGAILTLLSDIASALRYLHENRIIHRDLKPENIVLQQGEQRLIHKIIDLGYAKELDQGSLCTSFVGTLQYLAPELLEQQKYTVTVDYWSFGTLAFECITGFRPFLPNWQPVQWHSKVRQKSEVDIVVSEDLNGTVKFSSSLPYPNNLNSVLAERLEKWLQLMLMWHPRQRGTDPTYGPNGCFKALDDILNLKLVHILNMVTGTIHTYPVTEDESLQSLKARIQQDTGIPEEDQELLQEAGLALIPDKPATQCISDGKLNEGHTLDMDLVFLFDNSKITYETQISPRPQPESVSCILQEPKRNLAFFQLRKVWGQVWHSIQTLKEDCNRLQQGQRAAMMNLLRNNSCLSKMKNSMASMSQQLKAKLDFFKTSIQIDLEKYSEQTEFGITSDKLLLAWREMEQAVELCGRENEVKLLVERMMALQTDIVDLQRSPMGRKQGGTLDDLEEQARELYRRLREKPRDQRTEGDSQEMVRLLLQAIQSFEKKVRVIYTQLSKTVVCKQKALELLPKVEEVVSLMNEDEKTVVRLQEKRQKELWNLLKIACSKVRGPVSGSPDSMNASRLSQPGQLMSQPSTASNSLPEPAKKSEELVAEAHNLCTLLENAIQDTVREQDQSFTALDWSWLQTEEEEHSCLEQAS
The assay can be described thus: Selectivity interaction (Ambit KINOMEscan and KiNATiv profiling in Jurkat cells) EUB0000090b IKBKB. It is filed as cell-based. The following applies: at 1 µM.

Assay [4] deals with Serine/threonine-protein kinase NIM1 (Homo sapiens, UniProt Q8IY84). The assay can be described thus: Selectivity interaction (Ambit KINOMEscan and KiNATiv profiling in Jurkat cells) EUB0000090b NIM1K. It is filed as cell-based. The note with it: at 1 µM.
Assay [5] deals with Tyrosine-protein kinase ABL1 (Homo sapiens), P00519 [Q252H]. The assay is described as follows: Selectivity interaction (KinomeScan (DiscoverX)) EUB0001079a ABL1. The following applies: at 1 µM.
Assay [6] concerns the target Serine/threonine-protein kinase PAK 1 (Homo sapiens) (UniProt Q13153). The assay can be described thus: Selectivity interaction (KinomeScan (DiscoverX)) EUB0001079a PAK1. The following applies: at 1 µM.
The target in assay [7] is Mitogen-activated protein kinase 7 (Homo sapiens) (UniProt Q13164). The assay is described as follows: Selectivity interaction (KinomeScan (DiscoverX)) EUB0000092b MAPK7. The following applies: at 10 µM.
Assay [8] concerns the target Serine/threonine-protein kinase Chk2 (Homo sapiens) (UniProt O96017). The assay can be described thus: Selectivity interaction (KinomeScan (DiscoverX)) EUB0001049a CHEK2. The note with it: at 1 µM.
The target of assay [9] is T2, Receptor-interacting serine/threonine-protein kinase 1 (Homo sapiens) (UniProt Q13546).
T2 sequence (whole entry): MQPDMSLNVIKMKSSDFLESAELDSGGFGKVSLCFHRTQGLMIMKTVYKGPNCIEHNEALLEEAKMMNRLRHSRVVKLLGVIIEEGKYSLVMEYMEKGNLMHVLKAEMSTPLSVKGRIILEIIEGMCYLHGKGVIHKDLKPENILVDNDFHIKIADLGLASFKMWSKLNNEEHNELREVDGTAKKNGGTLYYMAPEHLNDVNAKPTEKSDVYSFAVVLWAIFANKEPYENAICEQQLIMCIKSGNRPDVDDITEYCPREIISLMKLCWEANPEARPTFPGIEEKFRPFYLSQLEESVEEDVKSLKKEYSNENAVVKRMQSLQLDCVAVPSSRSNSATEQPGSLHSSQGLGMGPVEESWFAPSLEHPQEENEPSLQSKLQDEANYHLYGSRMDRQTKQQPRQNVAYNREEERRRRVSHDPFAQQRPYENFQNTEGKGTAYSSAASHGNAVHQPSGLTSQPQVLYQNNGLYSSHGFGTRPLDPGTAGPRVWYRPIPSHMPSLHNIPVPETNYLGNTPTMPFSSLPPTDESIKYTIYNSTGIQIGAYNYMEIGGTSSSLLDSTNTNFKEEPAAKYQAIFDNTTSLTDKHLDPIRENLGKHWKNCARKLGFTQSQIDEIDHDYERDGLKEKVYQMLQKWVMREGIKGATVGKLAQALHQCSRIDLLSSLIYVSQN
The assay can be described thus: Selectivity interaction (KinomeScan (DiscoverX)) EUB0000045b RIPK1.

Assay [10] addresses Maternal embryonic leucine zipper kinase (Homo sapiens) (UniProt Q14680). The assay is described as follows: Selectivity interaction (KinomeScan (DiscoverX)) EUB0000607a MELK. The following applies: at 10 µM.
Assay [11] has as its target Ribosomal protein S6 kinase alpha-3 (Homo sapiens, UniProt P51812). The assay is described as follows: Selectivity interaction (ActivX KiNativ screen (kinase selectivity in THP-1 cell lysates)) EUB0000639a RPS6KA3. It is filed as subcellular. The note with it: lysate, at 1 µM.
In a further assay the target is Insulin receptor (Homo sapiens, UniProt P06213).
Assay [12] addresses T3, Serine/threonine-protein kinase Chk1 (Homo sapiens) (UniProt O14757).
T3 sequence (whole entry): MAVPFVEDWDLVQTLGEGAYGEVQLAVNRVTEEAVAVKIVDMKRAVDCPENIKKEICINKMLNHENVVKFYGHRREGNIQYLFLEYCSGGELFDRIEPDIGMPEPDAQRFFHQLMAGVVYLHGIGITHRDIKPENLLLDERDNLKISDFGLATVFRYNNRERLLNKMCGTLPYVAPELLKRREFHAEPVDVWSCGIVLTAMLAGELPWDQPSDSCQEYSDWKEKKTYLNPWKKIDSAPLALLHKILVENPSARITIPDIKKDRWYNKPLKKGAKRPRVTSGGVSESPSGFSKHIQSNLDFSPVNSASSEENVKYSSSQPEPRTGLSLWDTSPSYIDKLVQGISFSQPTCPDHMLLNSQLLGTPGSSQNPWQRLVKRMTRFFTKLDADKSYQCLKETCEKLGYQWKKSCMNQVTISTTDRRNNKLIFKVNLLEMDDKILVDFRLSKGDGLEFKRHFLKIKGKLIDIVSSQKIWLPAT
The assay is described as follows: Selectivity interaction (KinomeScan (DiscoverX)) EUB0000229b CHEK1. The following applies: at 10 µM.

The target in assay [13] is Serine/threonine-protein kinase PAK 4 (Homo sapiens, UniProt O96013). The assay can be described thus: Selectivity interaction (KinomeScan (DiscoverX)) EUB0000229b PAK4. The following applies: at 10 µM.
Serine/threonine-protein kinase PAK 4, sequence (O96013 whole entry, looked up): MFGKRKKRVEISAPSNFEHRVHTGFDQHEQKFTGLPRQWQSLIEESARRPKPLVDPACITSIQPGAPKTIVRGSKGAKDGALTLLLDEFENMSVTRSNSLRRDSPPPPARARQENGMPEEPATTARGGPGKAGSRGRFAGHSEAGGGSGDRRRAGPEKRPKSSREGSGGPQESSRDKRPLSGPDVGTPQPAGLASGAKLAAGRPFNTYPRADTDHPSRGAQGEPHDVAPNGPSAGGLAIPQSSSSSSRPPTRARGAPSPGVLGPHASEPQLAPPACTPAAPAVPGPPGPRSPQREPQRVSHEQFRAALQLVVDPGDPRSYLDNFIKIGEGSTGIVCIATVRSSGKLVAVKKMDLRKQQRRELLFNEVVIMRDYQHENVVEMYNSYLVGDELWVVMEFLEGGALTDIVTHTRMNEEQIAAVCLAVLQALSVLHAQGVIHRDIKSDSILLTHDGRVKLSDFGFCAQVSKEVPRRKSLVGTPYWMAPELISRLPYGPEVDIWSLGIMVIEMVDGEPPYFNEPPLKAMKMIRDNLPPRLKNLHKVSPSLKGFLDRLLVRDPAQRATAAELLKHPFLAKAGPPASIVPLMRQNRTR

DNA-dependent protein kinase catalytic subunit (Homo sapiens), sequence (P78527 whole entry): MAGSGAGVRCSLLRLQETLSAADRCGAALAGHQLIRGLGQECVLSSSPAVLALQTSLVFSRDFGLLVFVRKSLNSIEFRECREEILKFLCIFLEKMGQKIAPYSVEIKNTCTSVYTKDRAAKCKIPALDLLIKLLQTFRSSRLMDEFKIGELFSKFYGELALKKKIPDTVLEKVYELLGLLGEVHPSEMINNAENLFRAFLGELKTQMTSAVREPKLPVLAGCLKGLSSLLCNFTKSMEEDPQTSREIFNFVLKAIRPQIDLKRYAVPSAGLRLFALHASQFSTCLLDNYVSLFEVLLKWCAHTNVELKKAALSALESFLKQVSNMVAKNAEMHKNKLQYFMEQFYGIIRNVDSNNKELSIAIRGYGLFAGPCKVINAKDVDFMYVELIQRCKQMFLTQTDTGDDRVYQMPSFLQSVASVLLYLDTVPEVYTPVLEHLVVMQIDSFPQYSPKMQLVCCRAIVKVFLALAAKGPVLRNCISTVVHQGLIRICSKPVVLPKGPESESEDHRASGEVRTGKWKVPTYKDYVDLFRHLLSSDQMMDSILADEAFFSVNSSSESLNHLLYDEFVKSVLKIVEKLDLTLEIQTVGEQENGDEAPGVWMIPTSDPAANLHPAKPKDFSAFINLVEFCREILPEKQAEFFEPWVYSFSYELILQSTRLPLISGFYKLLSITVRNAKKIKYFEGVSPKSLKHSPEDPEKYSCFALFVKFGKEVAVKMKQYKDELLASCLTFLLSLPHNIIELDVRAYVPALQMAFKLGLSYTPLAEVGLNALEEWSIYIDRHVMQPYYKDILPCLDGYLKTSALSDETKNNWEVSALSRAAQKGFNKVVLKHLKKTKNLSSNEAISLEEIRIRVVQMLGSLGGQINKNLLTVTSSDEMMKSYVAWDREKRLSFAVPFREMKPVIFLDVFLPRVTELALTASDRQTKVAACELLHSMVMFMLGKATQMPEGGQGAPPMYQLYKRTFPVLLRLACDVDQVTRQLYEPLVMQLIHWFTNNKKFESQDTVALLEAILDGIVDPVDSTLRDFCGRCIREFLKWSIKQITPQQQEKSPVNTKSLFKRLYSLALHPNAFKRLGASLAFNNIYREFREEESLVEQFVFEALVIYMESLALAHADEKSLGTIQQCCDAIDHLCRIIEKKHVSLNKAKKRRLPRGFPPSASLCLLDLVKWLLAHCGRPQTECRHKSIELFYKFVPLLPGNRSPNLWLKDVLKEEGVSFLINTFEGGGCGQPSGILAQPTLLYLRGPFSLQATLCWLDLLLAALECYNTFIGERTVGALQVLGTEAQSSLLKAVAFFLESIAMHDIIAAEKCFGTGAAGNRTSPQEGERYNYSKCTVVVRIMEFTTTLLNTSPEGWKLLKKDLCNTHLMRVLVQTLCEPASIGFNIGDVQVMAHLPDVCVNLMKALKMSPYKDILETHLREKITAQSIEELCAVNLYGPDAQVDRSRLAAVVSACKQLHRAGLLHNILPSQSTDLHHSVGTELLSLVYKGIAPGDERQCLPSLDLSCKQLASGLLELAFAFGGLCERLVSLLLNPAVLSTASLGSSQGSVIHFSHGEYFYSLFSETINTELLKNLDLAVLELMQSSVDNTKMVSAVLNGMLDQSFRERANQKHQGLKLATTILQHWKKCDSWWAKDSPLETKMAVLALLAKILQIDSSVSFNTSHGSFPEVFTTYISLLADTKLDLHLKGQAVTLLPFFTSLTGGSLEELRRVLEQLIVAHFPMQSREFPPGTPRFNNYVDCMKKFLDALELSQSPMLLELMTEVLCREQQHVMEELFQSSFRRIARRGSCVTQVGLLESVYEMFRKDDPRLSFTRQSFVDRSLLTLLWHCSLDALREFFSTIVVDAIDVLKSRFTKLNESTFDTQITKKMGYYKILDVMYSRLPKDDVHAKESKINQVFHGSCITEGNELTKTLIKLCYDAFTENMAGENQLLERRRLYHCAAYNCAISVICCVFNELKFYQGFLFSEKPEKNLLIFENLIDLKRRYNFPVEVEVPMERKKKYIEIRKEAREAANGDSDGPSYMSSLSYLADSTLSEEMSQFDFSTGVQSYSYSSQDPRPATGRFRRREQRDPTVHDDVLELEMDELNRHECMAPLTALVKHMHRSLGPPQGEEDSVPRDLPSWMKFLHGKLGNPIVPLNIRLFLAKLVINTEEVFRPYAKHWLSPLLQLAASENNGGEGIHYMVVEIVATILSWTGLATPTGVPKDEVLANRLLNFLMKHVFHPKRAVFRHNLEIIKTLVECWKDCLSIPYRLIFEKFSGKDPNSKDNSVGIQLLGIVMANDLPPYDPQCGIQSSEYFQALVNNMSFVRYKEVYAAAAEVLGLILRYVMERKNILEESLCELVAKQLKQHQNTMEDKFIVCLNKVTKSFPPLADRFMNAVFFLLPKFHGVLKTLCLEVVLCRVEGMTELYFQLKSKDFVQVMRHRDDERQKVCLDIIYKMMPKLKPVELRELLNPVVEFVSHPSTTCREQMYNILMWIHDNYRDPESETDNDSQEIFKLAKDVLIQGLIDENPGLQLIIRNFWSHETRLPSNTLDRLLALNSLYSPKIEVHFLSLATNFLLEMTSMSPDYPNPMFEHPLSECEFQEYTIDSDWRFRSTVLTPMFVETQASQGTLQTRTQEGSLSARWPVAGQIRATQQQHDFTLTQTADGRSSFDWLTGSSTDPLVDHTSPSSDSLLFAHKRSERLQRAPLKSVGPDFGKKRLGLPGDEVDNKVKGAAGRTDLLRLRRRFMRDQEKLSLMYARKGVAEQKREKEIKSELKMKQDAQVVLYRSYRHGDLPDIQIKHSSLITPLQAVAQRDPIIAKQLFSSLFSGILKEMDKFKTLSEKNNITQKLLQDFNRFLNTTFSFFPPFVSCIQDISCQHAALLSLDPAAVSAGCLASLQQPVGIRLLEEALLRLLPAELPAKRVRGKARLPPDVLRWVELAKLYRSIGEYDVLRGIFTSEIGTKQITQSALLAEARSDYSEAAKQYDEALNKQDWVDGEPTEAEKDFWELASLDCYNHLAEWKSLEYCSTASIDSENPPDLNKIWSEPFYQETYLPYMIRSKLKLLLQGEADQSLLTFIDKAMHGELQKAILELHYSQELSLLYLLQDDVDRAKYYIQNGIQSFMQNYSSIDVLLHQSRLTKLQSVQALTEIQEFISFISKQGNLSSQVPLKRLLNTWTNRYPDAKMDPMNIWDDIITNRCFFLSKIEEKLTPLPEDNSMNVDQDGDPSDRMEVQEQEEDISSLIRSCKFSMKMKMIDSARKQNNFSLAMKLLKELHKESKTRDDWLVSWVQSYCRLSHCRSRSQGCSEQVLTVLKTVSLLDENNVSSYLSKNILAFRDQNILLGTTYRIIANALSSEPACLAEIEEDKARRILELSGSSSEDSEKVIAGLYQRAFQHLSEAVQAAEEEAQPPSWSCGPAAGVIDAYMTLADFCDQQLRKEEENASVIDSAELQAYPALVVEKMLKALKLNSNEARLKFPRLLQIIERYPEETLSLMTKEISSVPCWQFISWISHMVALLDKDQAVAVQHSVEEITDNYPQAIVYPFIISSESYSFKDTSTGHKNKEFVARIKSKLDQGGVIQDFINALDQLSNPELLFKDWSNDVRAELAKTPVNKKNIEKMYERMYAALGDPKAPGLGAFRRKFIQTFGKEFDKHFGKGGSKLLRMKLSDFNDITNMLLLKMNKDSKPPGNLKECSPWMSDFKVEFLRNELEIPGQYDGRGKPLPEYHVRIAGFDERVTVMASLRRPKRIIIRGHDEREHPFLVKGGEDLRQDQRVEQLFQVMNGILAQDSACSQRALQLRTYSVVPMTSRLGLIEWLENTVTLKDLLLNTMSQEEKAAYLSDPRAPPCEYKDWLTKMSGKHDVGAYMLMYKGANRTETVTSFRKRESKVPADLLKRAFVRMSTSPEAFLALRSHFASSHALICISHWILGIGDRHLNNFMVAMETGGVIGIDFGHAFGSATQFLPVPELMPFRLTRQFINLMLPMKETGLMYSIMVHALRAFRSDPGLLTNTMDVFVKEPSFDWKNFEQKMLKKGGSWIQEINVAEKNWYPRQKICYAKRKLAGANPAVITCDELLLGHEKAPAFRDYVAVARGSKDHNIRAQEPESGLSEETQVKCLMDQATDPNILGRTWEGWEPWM
Serine/threonine-protein kinase NIM1, sequence (Q8IY84 whole entry): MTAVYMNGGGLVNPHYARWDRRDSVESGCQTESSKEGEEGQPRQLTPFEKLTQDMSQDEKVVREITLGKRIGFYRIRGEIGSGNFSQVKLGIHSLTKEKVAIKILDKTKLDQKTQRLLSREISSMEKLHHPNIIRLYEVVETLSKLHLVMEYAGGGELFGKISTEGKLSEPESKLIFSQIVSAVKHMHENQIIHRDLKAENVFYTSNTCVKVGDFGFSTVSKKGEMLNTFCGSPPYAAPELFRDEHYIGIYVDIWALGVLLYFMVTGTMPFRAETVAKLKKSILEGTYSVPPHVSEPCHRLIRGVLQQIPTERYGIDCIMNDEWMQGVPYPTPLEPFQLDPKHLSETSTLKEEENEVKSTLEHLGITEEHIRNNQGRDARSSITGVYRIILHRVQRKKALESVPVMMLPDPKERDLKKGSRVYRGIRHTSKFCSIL

On to `C=CC(=O)Nc1cccc(C(=O)Nc2ccc(Nc3cc(-c4[nH]c(SC)nc4C)ccn3)cc2)c1`, for which the % of control in [1] (at 1 µM) turned out to be 92%; in [1] (at 5 µM), 103%.
`Cc1cc([C@@H](C)Nc2ccccc2C(=O)O)c2nc(N3CCOCC3)cc(=O)n2c1` [AZD-6482] gave a % of control in assay [2] of 100%.
As to `CN(C)C/C=C/C(=O)Nc1ccc(C(=O)N2CCCC(Nc3ncc(Cl)c(-c4c[nH]c5ccccc45)n3)C2)cc1` (stereo unspecified), the values for the % of control in assay [3] and in assay [4] were 73% and 93%, respectively.
In the case of `Nc1cnc(N2CCc3cc(S(=O)(=O)Nc4c(F)cc(Cl)cc4F)cc(N4CCCC4=O)c32)nc1` [TP-020n], the values for the % of control in [5] and in assay [6] were 98% and 89%, respectively.
`CCC(=O)N1CCN(c2ccc(-n3c(=O)ccc4cnc5ccc(-c6cnc7ccccc7c6)cc5c43)cc2C(F)(F)F)CC1` gave a % of control in [7] of 100%.
Consider `COc1cc(Nc2nc(C)cc(-c3cnn4nc(OC)ccc34)n2)cc(C(F)(F)F)c1`, for which the % of control in [8] turned out to be 54%.
On to `C=CC(=O)Nc1cc(-n2c(=O)ccc3cnc4ccc(-c5ccc(NS(C)(=O)=O)cc5)cc4c32)ccc1C`, for which the % of control was determined as 87% in assay [9] (at 1 µM) and 100% in assay [9] (at 10 µM).
With `CNC(=O)Nc1ccc(-c2nc(N3CC4CCC(C3)O4)c3cnn(C4CCC5(CC4)OCCO5)c3n2)cc1`, in assay [10], the % of control was 92%.
For the compound `CC[C@@H]1[C@H](F)C(=O)N[C@@H]1COc1nccc2cc(C(N)=O)c(OC)cc12` [ZIMLOVISERTIB], the % of inhibition in assay [11] came out at 6.6%.
In general, IC50 refers to the midpoint of a concentration-inhibition curve. On to `CCc1cccc(CC)c1NC(=O)c1nn(C)c2c1CCc1cnc(Nc3ccc(C(=O)NC4CCN(C)CC4)cc3OC(F)(F)F)nc1-2`, for which the IC50 against Insulin receptor is more than 10 µM.
Turning to `COc1cc(N(C)c2ccnc3ccc(C(F)(F)F)cc23)cc(OC)c1OC`, the % binding was found to be 92% in assay [12] and 81% in assay [13].
